In the supplement of paper PMC8882468:
± gives the standard deviation of the averaged measurements.

Assays:
Assay in all cases: CTG-3D luminescence at 96 h relative to day-0 seeding control (ratio to day 0); higher = more growth / less cytotoxicity; PDxO 3D drug screen, 96 h, CTG-3D normalised to day-0 seeding control.
HCI-005.E2 = test system: HCI-005.E2 (organoid from a breast cancer xenograft with a HER2-positive history)
HCI-012 = test system: HCI-012 (organoid from a breast cancer xenograft)
HCI-015 = test system: HCI-015 (organoid from a triple-negative breast cancer xenograft)
HCI-016 = test system: HCI-016 (organoid from a triple-negative breast cancer xenograft)
HCI-017.E2 = test system: HCI-017.E2 (organoid from an ER-positive breast cancer xenograft)
MDA-MB-231 = test system: MDA-MB-231

CC(C)(C(=O)NCC(F)(F)C(F)(F)F)C(=O)N[C@@H]1C(=O)Nc2ccccc2-c2ccccc21
CTG-3D luminescence at 96 h
Details	12.5 pM	0.00025 µM	0.005 µM	0.1 µM	1 µM	10 µM	100 µM	625 fM
HCI-005.E2	1.47 ± 0.22	1.48 ± 0.29	1.45 ± 0.36	1.8 ± 0.5	1.18 ± 0.59	1.29 ± 0.3	1.03 ± 0.34	1.54 ± 0.15
HCI-017.E2	1.84 ± 0.22	2.1 ± 0.19	2.09 ± 0.6	2.12 ± 0.22	2.04 ± 0.16	1.78 ± 0.29	1.23 ± 0.24	2.06 ± 0.25
MDA-MB-231	4.58 ± 1.4	4.53 ± 1.4	4.6 ± 1.4	4.48 ± 1.2	4.6 ± 1.4	4.7 ± 1.3	4.04 ± 1	4.6 ± 1.2

CTG-3D luminescence at 96 h
Details	12.5 pM	0.00025 µM	0.005 µM	0.1 µM	1 µM	10 µM	100 µM	625 fM
HCI-012, days in culture: 143	1.62	1.71	1.71	2.2	2.22	2.41	1.37	1.72
HCI-012, days in culture: 162	2.77	1.65	1.36	2.46	1.82	2.59	1.53	3.16
HCI-012, days in culture: 201	2.67	2.23	1.91	1.9	2.48	1.51	2.23	1.61
HCI-015, days in culture: 172	1.79	0.907	1.41	0.52	0.649	0.927	0.996	1.66
HCI-015, days in culture: 191	2.23	0.752	0.752	0.54	0.523	0.502	0.509	1.89
HCI-015, days in culture: 218	1.79	1.02	1.03	0.889	0.743	0.516	0.649	1.97
HCI-016, days in culture: 153	2.8	1.65	2.24	1.56	1.82	1.88	0.801	2.19
HCI-016, days in culture: 172	2.46	1.82	1.92	1.28	1.18	1.37	0.772	1.91
HCI-016, days in culture: 190	1.8	1.23	1.17	1.04	1.47	1.46	0.817	1.22
HCI-016, days in culture: 199	1.59	1.04	1.35	1.51	1.42	1.67	0.796	1.63
HCI-017.E2, days in culture: 85	2.5	2.8	2.42	1.44	1.19	1.24	1.25	2.29

CCN(c1cc(C#CCN2CCOCC2)cc(C(=O)NCc2c(C)cc(C)[nH]c2=O)c1C)[C@H]1CC[C@H](N(C)CCOC)CC1
CTG-3D luminescence at 96 h
Details	12.5 pM	0.00025 µM	0.005 µM	0.1 µM	1 µM	10 µM	100 µM	625 fM
HCI-005.E2	1.1 ± 0.23	1.52 ± 0.39	1.38 ± 0.23	1.82 ± 0.34	1.14 ± 0.16	1.22 ± 0.23	1.29 ± 0.23	1.34 ± 0.22
HCI-017.E2	1.57 ± 0.12	1.65 ± 0.21	1.91 ± 0.021	1.81 ± 0.1	1.72 ± 0.17	2.01 ± 0.46	1.5 ± 0.8	2.01 ± 0.32
MDA-MB-231	4.49 ± 1.2	4.37 ± 1.4	4.44 ± 1.4	4.29 ± 1.3	4.31 ± 1.5	4.37 ± 1.4	4.39 ± 1.3	4.51 ± 1.3

CTG-3D luminescence at 96 h
Details	12.5 pM	0.00025 µM	0.005 µM	0.1 µM	1 µM	10 µM	100 µM	625 fM
HCI-012, days in culture: 143	1.91	2.56	2.37	2.99	3.02	3.17	0.606	1.86
HCI-012, days in culture: 162	2.51	2.39	1.97	2.73	2.39	3.19	1.69	2.39
HCI-012, days in culture: 201	2.85	2.09	1.92	2.18	2.33	1.83	2.37	1.64
HCI-015, days in culture: 172	2.25	1.77	2.86	1.78	2.2	1.94	1.91	2.23
HCI-015, days in culture: 191	2.6	1.59	1.92	1.44	2.09	1.44	1.13	1.91
HCI-015, days in culture: 218	1.78	1.4	2	1.49	1.67	2.02	0.907	2.07
HCI-016, days in culture: 153	2.92	1.14	2.22	1.64	2.25	2.06	1.5	3.1
HCI-016, days in culture: 172	2.13	2.17	1.72	1.56	2.1	1.64	1.52	1.33
HCI-016, days in culture: 190	2.02	1.67	1.75	1.5	1.73	1.62	1.56	1.36
HCI-016, days in culture: 199	1.74	2.22	2.22	1.86	2.01	1.95	2.02	2.09
HCI-017.E2, days in culture: 85	1.88	2.36	2.01	2.07	1.45	1.61	1.9	1.77

NC(=O)Nc1cc(-c2cccc(F)c2)sc1C(=O)N[C@H]1CCCNC1 [AZD7762]
CTG-3D luminescence at 96 h
Details	12.5 pM	0.00025 µM	0.005 µM	0.1 µM	1 µM	10 µM	100 µM	625 fM
HCI-005.E2	1.82 ± 0.58	1.75 ± 0.35	1.8 ± 0.53	1.6 ± 0.47	0.674 ± 0.13	0.164 ± 0.06	0.00356 ± 0.0034	1.95 ± 0.13
HCI-017.E2	1.919 ± 0.0074	2 ± 0.1	2.23 ± 0.41	1.853 ± 0.007	1.22 ± 0.14	1.22 ± 0.22	0.00946 ± 0.0014	2.25 ± 0.22
MDA-MB-231	4.48 ± 1.4	4.32 ± 1.5	4.52 ± 1.5	3.96 ± 1.1	1.4 ± 0.32	0.628 ± 0.16	0.0187 ± 0.012	4.49 ± 1.4

CTG-3D luminescence at 96 h
Details	12.5 pM	0.00025 µM	0.005 µM	0.1 µM	1 µM	10 µM	100 µM	625 fM
HCI-012, days in culture: 143	2.11	2.03	2.04	2.67	1.75	0.0896	0.000673	1.69
HCI-012, days in culture: 162	2.58	2.41	1.89	2.83	1.99	0.16	-5.12e-05	3.15
HCI-012, days in culture: 201	2.51	2.18	1.69	1.39	2.14	0.141	0.00358	1.9
HCI-015, days in culture: 172	2.49	1.87	2.19	0.668	0.336	0.117	0.000941	2.32
HCI-015, days in culture: 191	1.83	1.42	1.11	0.566	0.248	0.12	-0.000313	1.28
HCI-015, days in culture: 218	1.16	1.65	1.65	0.692	0.211	0.102	-0.000297	1.59
HCI-016, days in culture: 153	3.14	1.64	2.54	0.266	0.0727	0.081	0.000259	2.62
HCI-016, days in culture: 172	2.35	1.91	1.78	0.194	0.0623	0.0531	-3.08e-05	1.66
HCI-016, days in culture: 190	1.53	1.19	1.71	0.131	0.0574	0.0481	0.00171	1.32
HCI-016, days in culture: 199	1.5	1.46	1.56	0.129	0.0407	0.0245	-0.00099	1.57
HCI-017.E2, days in culture: 85	2.53	3.05	2.76	2.37	1.67	1.26	0.0135	2.7

O=C(/C=C/c1cccnc1)NCCCCC1CCN(C(=O)c2ccccc2)CC1 [FK866]
CTG-3D luminescence at 96 h
Details	12.5 pM	0.00025 µM	0.005 µM	0.1 µM	1 µM	10 µM	100 µM	625 fM
HCI-005.E2	1.39 ± 0.24	1.97 ± 0.33	1.39 ± 0.55	0.142 ± 0.22	0.135 ± 0.23	0.267 ± 0.47	0.166 ± 0.29	1.93 ± 0.57
HCI-017.E2	1.61 ± 0.73	1.98 ± 0.36	0.93 ± 0.32	0.759 ± 0.65	0.847 ± 0.7	0.866 ± 0.81	0.328 ± 0.036	1.39 ± 1.2
MDA-MB-231	4.37 ± 1.3	4.45 ± 1.5	3.77 ± 1.3	0.298 ± 0.16	0.237 ± 0.14	0.236 ± 0.13	0.146 ± 0.08	4.49 ± 1.3

CTG-3D luminescence at 96 h
Details	12.5 pM	0.00025 µM	0.005 µM	0.1 µM	1 µM	10 µM	100 µM	625 fM
HCI-012, days in culture: 143	1.77	2.17	0.328	0.0872	0.0769	0.0863	0.175	1.84
HCI-012, days in culture: 162	2.18	2.1	0.129	0.0723	0.0448	0.085	0.127	2.72
HCI-012, days in culture: 201	2.67	0.11	0.33	0.0389	0.128	0.0435	0.115	1.67
HCI-015, days in culture: 172	2.55	0.705	0.752	0.206	0.213	0.158	0.29	2.38
HCI-015, days in culture: 191	2.04	1.32	0.805	0.141	0.243	0.167	0.215	1.64
HCI-015, days in culture: 218	1.79	1.55	0.648	0.169	0.147	0.133	0.158	1.86
HCI-016, days in culture: 153	2.99	0.401	0.569	0.026	0.0254	0.0134	0.0183	2.29
HCI-016, days in culture: 172	2.21	1.75	0.508	0.0341	0.0259	0.0131	0.022	1.55
HCI-016, days in culture: 190	1.78	1.44	0.967	0.0245	0.0257	0.0168	0.037	1.08
HCI-016, days in culture: 199	1.45	1.44	0.503	0.0273	0.0129	0.013	0.0134	1.79
HCI-017.E2, days in culture: 85	2.98	3.2	2.28	0.984	0.928	0.889	0.391	2.15
